One data set in a line: in vivo. Particulars: zebrafish.
A further data set concerns the target T1, Tyrosinase (Danio rerio) (UniProt A0A8M1PAD4).
T1 sequence (whole entry): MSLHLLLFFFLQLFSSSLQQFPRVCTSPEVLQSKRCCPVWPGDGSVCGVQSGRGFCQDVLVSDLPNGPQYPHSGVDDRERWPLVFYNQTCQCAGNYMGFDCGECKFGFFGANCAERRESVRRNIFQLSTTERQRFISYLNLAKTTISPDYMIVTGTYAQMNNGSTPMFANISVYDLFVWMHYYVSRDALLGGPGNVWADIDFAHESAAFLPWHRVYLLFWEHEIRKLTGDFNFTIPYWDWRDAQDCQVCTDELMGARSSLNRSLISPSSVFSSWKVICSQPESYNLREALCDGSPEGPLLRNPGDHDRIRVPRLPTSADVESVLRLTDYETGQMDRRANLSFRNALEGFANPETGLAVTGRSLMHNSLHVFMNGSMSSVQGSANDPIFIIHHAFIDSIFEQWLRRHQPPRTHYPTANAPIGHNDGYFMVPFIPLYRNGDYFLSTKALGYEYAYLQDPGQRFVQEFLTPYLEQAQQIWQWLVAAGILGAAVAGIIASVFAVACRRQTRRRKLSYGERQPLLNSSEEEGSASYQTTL
In words: Inhibition of zebrafish embryo tyrosinase assessed as residual activity at 50 ug/ml after 48 hrs relative to control.

The species entered for data set [1] is Danio rerio. In words: Toxicity in wild type zebrafish embryos assessed as normal embryo at 2500 ug/ml treated for 96 hrs post fertilization starting from 6 hrs post fertilization by inverted microscopic analysis relative to control. It is filed as organism-based. Particulars: in vivo.
The species named for data set [2] is Danio rerio. In words: Toxicity in wild type zebrafish embryos assessed as growth retardation at 100 ug/ml treated for 96 hrs post fertilization starting from 6 hrs post fertilization by inverted microscopic analysis relative to control. It is filed as organism-based. Particulars: in vivo.
The species entered for data set [3] is Danio rerio. In words: Toxicity in wild type zebrafish embryos assessed as heart beat at 2500 ug/ml treated for 96 hrs post fertilization starting from 6 hrs post fertilization by inverted microscopic analysis relative to control. It is filed as organism-based. The note with it: in vivo.
The species entered for data set [4] is Danio rerio. In words: Toxicity in wild type zebrafish embryos assessed as otoliths at 1000 ug/ml treated for 96 hrs post fertilization starting from 6 hrs post fertilization by inverted microscopic analysis relative to control. It counts as organism-based. The note with it: in vivo.
The species entered for data set [5] is Danio rerio. Description: Toxicity in wild type zebrafish embryos assessed as growth retardation at 500 ug/ml treated for 96 hrs post fertilization starting from 6 hrs post fertilization by inverted microscopic analysis relative to control. The note with it: in vivo. It counts as organism-based.
For data set [6], the species on record is Danio rerio. Description: Toxicity in wild type zebrafish embryos assessed as normal embryo at 500 ug/ml treated for 96 hrs post fertilization starting from 6 hrs post fertilization by inverted microscopic analysis relative to control. It counts as organism-based. Particulars: in vivo.
The test system of data set [7] is Danio rerio. Description: Toxicity in wild type zebrafish embryos assessed as yolk edema at 1000 ug/ml treated for 96 hrs post fertilization starting from 6 hrs post fertilization by inverted microscopic analysis relative to control. It is filed as organism-based. Particulars: in vivo.
The species entered for data set [8] is Danio rerio. Description: Toxicity in wild type zebrafish embryos assessed as skeletal deformities at 100 ug/ml treated for 96 hrs post fertilization starting from 6 hrs post fertilization by inverted microscopic analysis relative to control. It counts as organism-based. The note with it: in vivo.
The species named for data set [9] is Danio rerio. In words: Toxicity in wild type zebrafish embryos assessed as notochord at 500 ug/ml treated for 96 hrs post fertilization starting from 6 hrs post fertilization by inverted microscopic analysis relative to control. It is filed as organism-based. Particulars: in vivo.
Data set [10] is filed under the species Danio rerio. In words: Toxicity in wild type zebrafish embryos assessed as head malformation at 1000 ug/ml treated for 96 hrs post fertilization starting from 6 hrs post fertilization by inverted microscopic analysis relative to control. It counts as organism-based. Particulars: in vivo.
The species entered for data set [11] is Danio rerio. In words: Toxicity in wild type zebrafish embryos assessed as teratogenic embryo at 100 ug/ml treated for 96 hrs post fertilization starting from 6 hrs post fertilization by inverted microscopic analysis relative to control. It counts as organism-based. The note with it: in vivo.
The species entered for data set [12] is Danio rerio. Description: Toxicity in wild type zebrafish embryos assessed as head malformation at 500 ug/ml treated for 96 hrs post fertilization starting from 6 hrs post fertilization by inverted microscopic analysis relative to control. It counts as organism-based. Particulars: in vivo.
The species named for data set [13] is Danio rerio. Description: Toxicity in wild type zebrafish embryos assessed as otoliths at 500 ug/ml treated for 96 hrs post fertilization starting from 6 hrs post fertilization by inverted microscopic analysis relative to control. It counts as organism-based. Particulars: in vivo.
The species entered for data set [14] is Danio rerio. Description: Toxicity in wild type zebrafish embryos assessed as normal embryo at 1000 ug/ml treated for 96 hrs post fertilization starting from 6 hrs post fertilization by inverted microscopic analysis relative to control. The note with it: in vivo. It is filed as organism-based.
The species entered for data set [15] is Danio rerio. In words: Toxicity in wild type zebrafish embryos assessed as unhatched embryo at 500 ug/ml treated for 96 hrs post fertilization starting from 6 hrs post fertilization by inverted microscopic analysis relative to control. It counts as organism-based. The note with it: in vivo.
The species named for data set [16] is Danio rerio. Description: Toxicity in wild type zebrafish embryos assessed as notochord at 100 ug/ml treated for 96 hrs post fertilization starting from 6 hrs post fertilization by inverted microscopic analysis relative to control. It is filed as organism-based. The note with it: in vivo.
Data set [17] is filed under the species Danio rerio. In words: Toxicity in wild type zebrafish embryos assessed as teratogenic embryo at 2500 ug/ml treated for 96 hrs post fertilization starting from 6 hrs post fertilization by inverted microscopic analysis relative to control. It counts as organism-based. The note with it: in vivo.
The species named for data set [18] is Danio rerio. Description: Toxicity in wild type zebrafish embryos assessed as heart beat at 2000 ug/ml treated for 96 hrs post fertilization starting from 6 hrs post fertilization by inverted microscopic analysis relative to control. It is filed as organism-based. The note with it: in vivo.
For data set [19], the species on record is Danio rerio. Description: Toxicity in wild type zebrafish embryos assessed as normal embryo at 2000 ug/ml treated for 96 hrs post fertilization starting from 6 hrs post fertilization by inverted microscopic analysis relative to control. It is filed as organism-based. Particulars: in vivo.
The species entered for data set [20] is Danio rerio. Description: Toxicity in wild type zebrafish embryos assessed as notochord at 2500 ug/ml treated for 96 hrs post fertilization starting from 6 hrs post fertilization by inverted microscopic analysis relative to control. It is filed as organism-based. Particulars: in vivo.
The species entered for data set [21] is Danio rerio. In words: Toxicity in wild type zebrafish embryos assessed as unhatched embryo at 1000 ug/ml treated for 96 hrs post fertilization starting from 6 hrs post fertilization by inverted microscopic analysis relative to control. It is filed as organism-based. The note with it: in vivo.
The species named for data set [22] is Danio rerio. In words: Toxicity in wild type zebrafish embryos assessed as unhatched embryo at 2500 ug/ml treated for 96 hrs post fertilization starting from 6 hrs post fertilization by inverted microscopic analysis relative to control. Particulars: in vivo. It counts as organism-based.
The species entered for data set [23] is Danio rerio. In words: Toxicity in wild type zebrafish embryos assessed as otoliths at 100 ug/ml treated for 96 hrs post fertilization starting from 6 hrs post fertilization by inverted microscopic analysis relative to control. It is filed as organism-based. The note with it: in vivo.
Data set [24] deals with Danio rerio. Description: Toxicity in wild type zebrafish embryos assessed as pericardial edema at 500 ug/ml treated for 96 hrs post fertilization starting from 6 hrs post fertilization by inverted microscopic analysis relative to control. It is filed as organism-based. The note with it: in vivo.

Description for in vivo: Toxicity in wild type zebrafish embryos assessed as dead embryo at 6.25 ug/ml treated for 96 hrs post fertilization starting from 6 hrs post fertilization by inverted microscopic analysis relative to control

On to `Oc1ccc(O)cc1` [HYDROQUINONE], for which, in “in vivo”, the mortality at 6.25 ug/ml was determined as 0%.
As for `O=c1cc(-c2ccccc2)c2ccc(O)cc2o1`, the Activity at Tyrosinase (Danio rerio) turned out to be 48%.
Turning to `O=c1cc(CO)occ1O` [KOJIC ACID], the Activity is given as 0% in the data set listed under Danio rerio [1]; 0% in the data set listed under Danio rerio [2]; 100% in the data set listed under Danio rerio [3]; 0% in the data set filed under Danio rerio [4]; 0% in the data set filed under Danio rerio [5]; 13.33% in the data set listed under Danio rerio [6]. The Activity in the data set on Danio rerio [7] is 0%; in the data set listed under Danio rerio [8], 0%; in the data set listed under Danio rerio [9], 0%; in the data set listed under Danio rerio [10], 0%; in the data set filed under Danio rerio [11] it was 35%; in the data set filed under Danio rerio [12], 0%. For the same compound, the Activity in the data set filed under Danio rerio [13] is 0%; in the data set listed under Danio rerio [14], 1.67%; in the data set listed under Danio rerio [15], 0%; in the data set filed under Danio rerio [16], 0%; in the data set listed under Danio rerio [17], 100%; in the data set listed under Danio rerio [18] it was 96.67%. Moreover, the Activity was determined as 0% in the data set listed under Danio rerio [19]; 0% in the data set listed under Danio rerio [20]; 0% in the data set listed under Danio rerio [21]; 0% in the data set filed under Danio rerio [22]; 0% in the data set listed under Danio rerio [23]; 86.67% with Danio rerio [24].

One may read the mortality as the percentage killed. Higher therefore signals a strong lethal effect.

The values are drawn from ChEMBL document CHEMBL4177616, “Potent anti-melanogenic activity and favorable toxicity profile of selected 4-phenyl hydroxycoumarins in the zebrafish model and the computational molecular modeling studies” (Bioorg Med Chem, 2017).
